Source: patent publication US9340577B2, “HLA binding motifs and peptides and their uses” (priority 1992, dated 2016)
pIC50: −log10 of the molar value. No end group written: not given here.

Tests used:
Test in all cases: biochemical
[1] = target: DRB1*1201 (Homo sapiens, UniProt P01903+P01911, A100R/A169T/D57E/D86V/F55L/H45Y/K41T/L162R/M171V/P40S/Q125H/Q178H/Q39Y/Q99D/R42G/S66L/T262R/V114A/V67L/W38E/Y59H/Y61H/Y89S); assay type: binding
[2] = target: DRB4*0101 (Homo sapiens, UniProt P01903+P13762, G164S); assay type: binding
[3] = target: DRB1*0405 (Homo sapiens, UniProt P01903+P01911, A100R/A169T/D86S/F76Y/I96L/K127E/L162R/M171V/N62H/P40V/Q125Y/R42H/S133A/S149N/S66Y/V115G/V209L/W38E); assay type: binding
[4] = target: DRB1*0901 (Homo sapiens, UniProt P01903+P01911, A100R/A103E/D57H/D86V/F55Y/F60I/F76Y/I96F/K127E/L162R/M171V/P40D/Q125H/Q99R/R33Q/R42F/S133A/S66N/T210M/V115G/W38K/Y107V/Y59G/Y89S); assay type: binding
[5] = target: DRB1*1101 (Homo sapiens, UniProt P01903+P01911, A100R/A169T/A87E/I96F/K41T/L162R/M171V/P40S/Q125H/Q178H/Q39Y/Q99D/R42S/S66Y/T262R/V115G/W38E); settings: Binding affinity DRB1 *1101
[6] = target: DRB1*1302 (Homo sapiens, UniProt P01903+P01911, A100E/A169T/K41T/L162R/M171V/P40S/Q125H/Q178H/Q39Y/Q99D/R42S/S66N/T262R/V115G/W38E/Y61H); assay type: binding
[7] = target: DRB5*0101 (Homo sapiens, UniProt P01903+Q30154); settings: Binding affinity DRB5 *0101
[8] = target: DRB1*1501 (Homo sapiens, UniProt P01903+P01911); assay type: binding
[9] = target: DR4w4 (DRB1*0401) (Homo sapiens, UniProt P01903+P01911, A100K/A169T/F76Y/I96L/K127E/L162R/M171V/N62H/P40V/Q125Y/R42H/S133A/S149N/S66Y/V115G/V209L/W38E); assay type: binding
[10] = target: DRB1*0301 (Homo sapiens, UniProt P01903+P01911, A100K/A102G/A103R/A169T/F55Y/I96L/K41T/L162R/M171V/P40S/Q125H/Q178H/Q39Y/R42S/S66N/T106N/T262R/W38E/Y61H); assay type: binding
[11] = target: DRB1*0802 (Homo sapiens, UniProt P01903+P01911, A100R/A103L/A169T/F76Y/H45Y/I96F/K41T/L162R/M171V/P40S/Q125H/Q178H/Q39Y/Q99D/R218S/R42G/S66Y/V115G/W38E); assay type: binding
[12] = target: DR1 (DRB1*0101) (Homo sapiens, UniProt P01903+P01911, A100R/D57E/F55L/F60I/F76Y/I96L/L162R/M171V/P40L/Q125E/R42F/V115G/Y59C); assay type: binding
[13] = target: DR7 (DRB1*0701) (Homo sapiens, UniProt P01903+P01911, A100R/A102G/A103Q/D57E/D86V/E43K/F76Y/K127E/L162R/M171V/P40G/Q125H/Q99D/R33Q/R42Y/R54Q/S133A/S66F/T210M/V115G/Y107V/Y59L/Y89S); assay type: binding

DRB1*1101, sequence (P01903 26-254 limits assumed, other chains not shown): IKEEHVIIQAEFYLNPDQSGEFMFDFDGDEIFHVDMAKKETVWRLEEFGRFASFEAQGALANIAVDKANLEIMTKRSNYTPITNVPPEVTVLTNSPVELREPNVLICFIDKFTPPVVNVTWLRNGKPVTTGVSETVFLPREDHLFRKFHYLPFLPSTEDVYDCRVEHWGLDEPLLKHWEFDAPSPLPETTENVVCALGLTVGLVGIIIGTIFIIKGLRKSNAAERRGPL
DRB1*0301, sequence (P01903 26-254 limits assumed, other chains not shown): as above
DRB1*1302, sequence (P01903 26-254 limits assumed, other chains not shown): as above

Molecule | pIC50 [1] | pIC50 [2] | pIC50 [3] | pIC50 [4] | pIC50 [5] | pIC50 [6] | pIC50 [7] | pIC50 [8] | pIC50 [9] | pIC50 [10] | pIC50 [11] | pIC50 [12] | pIC50 [13]
SNLLSIPETCMVIEP [Peptide 89.0067] | 5.41 | 6.02 | 7.74 | 5.88 | 4.89 | 6.46 | < 4.70 | 6.29 | 6.49 | < 4.70 | 4.77 | 6.46 | –
CC(C)C[C@H](NC(=O)[C@H](CCC(N)=O)NC(=O)[C@H](CCCCN)NC(=O)[C@@H](NC(=O)[C@H](CC(C)C)NC(=O)[C@H](CCC(N)=O)NC(=O)[C@@H](NC(=O)[C@H](C)NC(=O)[C@H](CO)NC(=O)[C@@H](NC(=O)[C@@H](NC(=O)[C@H](CC(=O)O)NC(=O)[C@@H](N)CC(=O)O)[C@@H](C)O)C(C)C)[C@@H](C)O)C(C)C)C(=O)N[C@@H](CCC(N)=O)C(=O)N[C@@H](Cc1c[nH]cn1)C(=O)O [Peptide 89.0162] | 6.56 | 6.89 | 6.17 | 5.71 | 6.03 | 7.14 | 6.24 | 6.22 | 7.00 | 6.62 | – | – | –
KVAMLDDATHTCWTY [Peptide 90.0105] | 5.03 | 7.68 | 6.55 | < 4.70 | 5.65 | < 4.70 | < 4.70 | 5.65 | 7.47 | 6.39 | 5.09 | 6.60 | –
EIYIIEEDTCTMVTG [Peptide 90.0203] | < 4.70 | 5.76 | 5.51 | < 4.70 | – | 6.24 | < 4.70 | 5.19 | 6.59 | 6.56 | < 4.70 | 5.87 | –
VEFMSFLTALKRFLQ [Peptide 89.0015] | 7.04 | 7.38 | 6.34 | – | 7.36 | 5.01 | 7.72 | 5.74 | 7.14 | 6.46 | 6.99 | 7.72 | 6.96
IHFLQGAIISFVNSN [Peptide 89.0089] | 7.15 | 6.57 | 5.58 | – | – | 6.35 | < 4.70 | 7.27 | 6.30 | < 4.70 | 5.72 | 8.38 | 5.99
FKYFKEDAAKYSKTQ [Peptide 90.0206] | 6.40 | < 4.70 | 5.16 | 5.77 | 6.52 | 5.77 | – | 6.06 | 7.72 | 6.35 | 6.08 | 7.20 | –
ENSIQADTEAARALF [Peptide 90.0078] | 5.13 | < 4.70 | < 4.70 | < 4.70 | < 4.70 | < 4.70 | < 4.70 | < 4.70 | < 4.70 | 6.21 | < 4.70 | 5.41 | –
LKVLIKQHSLYTHLQ [Peptide 89.0061] | 7.48 | 7.96 | 6.16 | – | 7.37 | 7.52 | – | 7.74 | 7.77 | 5.74 | 7.24 | 8.37 | 6.35
DNDVMDDSEIAYKYA [Peptide 90.0069] | 4.90 | < 4.70 | 5.00 | < 4.70 | < 4.70 | < 4.70 | < 4.70 | 5.08 | 5.43 | 7.28 | < 4.70 | < 4.70 | –
DNELTDDSDIAYYYA [Peptide 90.0085] | < 4.70 | < 4.70 | < 4.70 | < 4.70 | < 4.70 | < 4.70 | < 4.70 | – | < 4.70 | 7.01 | < 4.70 | < 4.70 | < 4.70
VTAIFGVNPTIAEGF [Peptide 89.0023] | 5.18 | 6.26 | 7.00 | 5.54 | < 4.70 | 6.71 | < 4.70 | 5.24 | 6.08 | 5.47 | < 4.70 | 5.94 | –
YFKYFKEDAAKYSKT [Peptide 90.0205] | 5.09 | < 4.70 | < 4.70 | – | 5.72 | < 4.70 | 5.33 | 5.41 | 7.15 | 6.32 | 5.22 | – | 5.44
CC[C@H](C)[C@H](N)C(=O)N[C@@H](CCC(=O)O)C(=O)N[C@@H](Cc1ccccc1)C(=O)N[C@H](C(=O)N[C@H](C(=O)N[C@@H](Cc1ccccc1)C(=O)N[C@@H](CC(C)C)C(=O)NCC(=O)N[C@@H](C)C(=O)N[C@@H](CC(C)C)C(=O)N[C@@H](CCCCN)C(=O)N[C@@H](CO)C(=O)N[C@@H](Cc1ccccc1)C(=O)N[C@@H](CC(C)C)C(=O)N[C@@H](CCCCN)C(=O)O)[C@@H](C)O)[C@@H](C)CC [Peptide 89.0033] | 6.39 | 7.36 | 5.78 | – | – | < 4.70 | 7.47 | 7.11 | 7.13 | 5.64 | – | 8.07 | 6.39
DHDITDDSDIAYKYA [Peptide 90.0117] | < 4.70 | 6.24 | 5.66 | – | < 4.70 | 6.27 | 5.17 | < 4.70 | 6.29 | 7.00 | < 4.70 | < 4.70 | < 4.70
CC[C@H](C)[C@H](NC(=O)[C@H](Cc1c[nH]c2ccccc12)NC(=O)[C@H](CCC(=O)O)NC(=O)[C@@H]1CCCN1)C(=O)N[C@@H](CCC(=O)O)C(=O)N[C@@H](CCCNC(=N)N)C(=O)N[C@@H](CCC(N)=O)C(=O)N[C@H](C(=O)N[C@H](C(=O)N[C@@H](CC(C)C)C(=O)N[C@@H](CCC(N)=O)C(=O)N[C@@H](Cc1c[nH]cn1)C(=O)N[C@@H](CO)C(=O)N[C@@H](Cc1ccccc1)C(=O)N[C@@H](CC(N)=O)C(=O)O)C(C)C)[C@@H](C)O [Peptide 89.0049] | 5.10 | 8.70 | 6.36 | 5.34 | 6.40 | 6.03 | < 4.70 | – | 7.74 | 6.68 | 6.15 | 5.28 | 5.54
DNDIVDDSEIAYKYA [Peptide 90.0037] | 5.28 | < 4.70 | < 4.70 | < 4.70 | < 4.70 | < 4.70 | < 4.70 | – | 5.34 | 7.55 | < 4.70 | < 4.70 | < 4.70
EDEIDTDLDGFIDDS [Peptide 90.0126] | 6.86 | 6.08 | 5.99 | – | < 4.70 | 7.17 | – | 6.57 | < 4.70 | 6.89 | – | 6.49 | –
